Results on nine compounds are retold here after patent US9187471B2, “Pyrido [4,3-b] indole and pyrido [3,4-b] indole derivatives and methods of use” (Medivation Technologies, Inc., priority 2010, dated 2015).

The structures appear in SMILES notation.

For assay [1], the target named is T1, human recombinant histamine H1 receptor (Homo sapiens, UniProt P35367).
T1 construct: expressed in transfected cells; host or cells: CHO-K1
The assay is described as follows: Histamine H1 radioligand binding ([3H]Pyrilamine). As to conditions: read-out: Histamine H1 Binding (1 μM), percent inhibition of specific binding; compound at 1 μM; 1.2 nM [3H]Pyrilamine. The procedure:
To evaluate in radioligand binding assays the activity of compounds of the invention, human recombinant histamine H1 receptor expressed in Chinese hamster ovary (CHO) K1 cells (De Backer, M. et al, Biochem. Biophys. Res. Comm. 197(3):1601, 1993) in a modified Tris-HCl buffer (50 mM Tris-HCl, pH 7.4, 2 mM MgCl2, 100 mM NaCl, 250 mM Sucrose) was used. […] Non-specific binding was estimated in the presence of 1 μM Pyrilamine. Receptor proteins were filtered and washed, the filters were then counted to determine [^3H]Pyrilamine specifically bound. […] Biochemical assay results are presented as the percent inhibition of specific binding in Table 2.

Assay [2] deals with T2, rat adrenergic α1A receptor (Rattus norvegicus, UniProt P43140).
T2 construct: rat adrenergic α1A receptor obtained from Wistar Rat submaxillary glands; from tissue; host or cells: Wistar rat submaxillary glands
T2 sequence (P43140 1-466): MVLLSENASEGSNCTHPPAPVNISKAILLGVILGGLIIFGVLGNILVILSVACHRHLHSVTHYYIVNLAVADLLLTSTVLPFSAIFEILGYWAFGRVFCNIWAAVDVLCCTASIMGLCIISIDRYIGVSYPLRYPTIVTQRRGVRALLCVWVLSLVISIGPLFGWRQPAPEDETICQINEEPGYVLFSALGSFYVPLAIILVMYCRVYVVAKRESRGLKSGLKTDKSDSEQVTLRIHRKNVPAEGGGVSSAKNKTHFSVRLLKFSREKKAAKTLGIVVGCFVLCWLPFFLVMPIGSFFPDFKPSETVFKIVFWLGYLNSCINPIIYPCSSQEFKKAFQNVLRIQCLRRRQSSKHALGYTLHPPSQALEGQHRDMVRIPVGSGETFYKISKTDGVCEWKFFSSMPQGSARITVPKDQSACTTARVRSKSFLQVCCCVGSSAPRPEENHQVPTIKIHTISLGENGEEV
Kind of assay: Adrenergic α1A radioligand binding ([3H]Prazosin). The note with it: read-out: Adrenergic (0.1 μM) a1A, percent inhibition of specific binding; compound at 0.1 μM; 0.25 nM [3H]Prazosin. Here is the method:
To evaluate in radioligand binding assays the activity of compounds of the invention, rat adrenergic α1A receptor obtained from Wistar Rat submaxillary glands (Michel, A. et al, Br. J. Pharmacol. 98:883, 1989) in a modified Tris-HCl buffer (50 mM Tris-HCl buffer, pH 7.4, 0.5 mM EDTA) was used. Compounds of the invention were incubated with 0.25 nM [^3H]Prazosin for 60 min at 25° C. Non-specific binding was estimated in the presence of 10 μM phentolamine Receptor proteins were filtered and washed, the filters were then counted to determine [^3H]Prazosin specifically bound. […] Compounds of the invention were tested in this biochemical assay and percent inhibition of specific binding was determined.

For assay [3], the target named is T3, human recombinant adrenergic α2C receptor (Homo sapiens, UniProt P18825).
T3 construct: expressed in transfected cells; host or cells: insect Sf9 cells
T3 sequence (P18825 1-462): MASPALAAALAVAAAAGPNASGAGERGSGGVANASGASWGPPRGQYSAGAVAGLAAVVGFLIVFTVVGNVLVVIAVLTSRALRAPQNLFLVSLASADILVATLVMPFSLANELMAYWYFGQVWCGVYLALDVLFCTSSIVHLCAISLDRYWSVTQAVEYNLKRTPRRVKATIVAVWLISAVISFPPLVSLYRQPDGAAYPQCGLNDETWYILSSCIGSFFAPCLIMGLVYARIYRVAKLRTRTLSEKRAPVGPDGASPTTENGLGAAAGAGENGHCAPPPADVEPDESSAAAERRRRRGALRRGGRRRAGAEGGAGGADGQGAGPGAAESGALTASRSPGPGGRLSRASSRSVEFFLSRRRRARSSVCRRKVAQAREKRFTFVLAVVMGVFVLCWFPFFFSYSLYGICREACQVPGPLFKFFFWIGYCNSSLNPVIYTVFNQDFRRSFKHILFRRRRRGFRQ
The assay is described as follows: Adrenergic α2C radioligand binding ([3H]MK-912). The note with it: read-out: Adrenergic (0.1 μM) a2C, percent inhibition of specific binding; compound at 0.1 μM; 1 nM [3H]MK-912. Here is the method:
To evaluate in radioligand binding assays the activity of compounds of the invention, human recombinant adrenergic α2C receptor expressed in insect Sf9 cells (Uhlen, S. et al, J. Pharmacol. Exp. Ther. 271:1558, 1994) in a modified Tris-HCl buffer (50 mM Tris-HCl, pH 7.4, 12.5 mM MgCl2, 2 mM EDTA) was used. Compounds of the invention were incubated with 1 nM [^3H]MK-912 for 60 min at 25° C. Non-specific binding was estimated in the presence of 10 μM WB-4101. Receptor proteins were filtered and washed, the filters were then counted to determine [^3H]MK-912 specifically bound. […] Compounds of the invention were tested in this biochemical assay and percent inhibition of specific binding was determined.

Assay [4] has as its target T4, human recombinant dopamine D2L receptor (Homo sapiens, UniProt P14416).
T4 construct: expressed in transfected cells; host or cells: CHO
Kind of assay: Dopamine D2L radioligand binding ([3H]Spiperone). The note with it: read-out: Dopamine D2L (1 μM), percent inhibition of specific binding; compound at 1 μM; 0.16 nM [3H]Spiperone. Here is the method: Non-specific binding was estimated in the presence of 10 μM Haloperidol. Receptor proteins were filtered and washed, the filters were then counted to determine [^3H]Spiperone specifically bound.

Assay [5] concerns the target T5, human recombinant serotonin (5-Hydroxytryptamine) 5-HT2A receptor (Homo sapiens, UniProt P28223).
T5 construct: expressed in transfected cells; host or cells: CHO-K1
The assay is described as follows: Serotonin 5-HT2A radioligand binding ([3H]Ketanserin). The note with it: compound at 0.1 μM; read-out: Inhibition of ligand binding, Serotonin 5-HT2A (percent inhibition of specific binding). Here is the method:
Compounds of the invention were incubated with 0.5 nM [^3H]Ketanserin for 60 min at 25° C. Non-specific binding was estimated in the presence of 1 μM Mianserin. Receptor proteins were filtered and washed, the filters were then counted to determine [^3H]Ketanserin specifically bound.

In assay [6] the target is T6, human recombinant serotonin (5-Hydroxytryptamine) 5-HT2C receptor (Homo sapiens, UniProt P28335).
T6 construct: expressed in transfected cells; host or cells: CHO-K1
T6 sequence (P28335 33-458): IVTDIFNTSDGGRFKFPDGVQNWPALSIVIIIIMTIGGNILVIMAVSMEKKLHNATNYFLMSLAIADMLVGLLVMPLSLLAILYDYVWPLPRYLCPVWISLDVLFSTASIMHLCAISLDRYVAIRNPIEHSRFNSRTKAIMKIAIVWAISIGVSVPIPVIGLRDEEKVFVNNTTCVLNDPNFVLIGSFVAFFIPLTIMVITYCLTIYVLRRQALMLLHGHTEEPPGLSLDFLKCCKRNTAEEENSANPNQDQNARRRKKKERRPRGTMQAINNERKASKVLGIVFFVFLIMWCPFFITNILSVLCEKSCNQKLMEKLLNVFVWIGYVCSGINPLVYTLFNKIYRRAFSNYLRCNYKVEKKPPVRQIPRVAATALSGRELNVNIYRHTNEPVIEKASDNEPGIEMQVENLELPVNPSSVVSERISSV
Kind of assay: Serotonin 5-HT2C radioligand binding ([3H]Mesulergine). As to conditions: compound at 0.1 μM; read-out: Inhibition of ligand binding, Serotonin 5-HT2C (percent inhibition of specific binding). The procedure: Compounds of the invention were incubated with 1 nM [^3H]Mesulergine for 60 min at 25° C. Non-specific binding was estimated in the presence of 1 μM Mianserin. Receptor proteins were filtered and washed, the filters were then counted to determine [^3H]Mesulergine specifically bound.

The target of assay [7] is T7, human recombinant serotonin (5-Hydroxytryptamine) 5-HT6 receptor (Homo sapiens, UniProt P50406).
T7 construct: expressed in transfected cells; host or cells: HeLa
T7 sequence (P50406 whole entry): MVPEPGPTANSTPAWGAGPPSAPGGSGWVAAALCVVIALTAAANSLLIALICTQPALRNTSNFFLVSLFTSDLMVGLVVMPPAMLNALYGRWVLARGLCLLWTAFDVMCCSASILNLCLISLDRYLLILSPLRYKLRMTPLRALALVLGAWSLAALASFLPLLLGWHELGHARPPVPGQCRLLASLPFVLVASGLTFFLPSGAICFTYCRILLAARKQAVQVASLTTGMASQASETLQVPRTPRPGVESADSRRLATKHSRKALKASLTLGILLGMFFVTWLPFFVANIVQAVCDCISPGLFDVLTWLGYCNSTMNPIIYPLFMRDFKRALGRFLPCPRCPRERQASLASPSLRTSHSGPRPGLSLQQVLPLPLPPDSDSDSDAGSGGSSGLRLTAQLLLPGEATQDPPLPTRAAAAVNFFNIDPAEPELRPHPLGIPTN
Kind of assay: Serotonin 5-HT6 radioligand binding ([3H]LSD). As to conditions: compound at 0.1 μM; read-out: Inhibition of ligand binding, Serotonin 5-HT6 (percent inhibition of specific binding). An excerpt:
Receptor proteins were filtered and washed, the filters were then counted to determine [3H]LSD specifically bound.

The target in assay [8] is T8, human recombinant serotonin (5-Hydroxytryptamine) 5-HT7 receptor (Homo sapiens, UniProt P34969).
T8 construct: expressed in transfected cells; host or cells: CHO
T8 sequence (P34969 whole entry): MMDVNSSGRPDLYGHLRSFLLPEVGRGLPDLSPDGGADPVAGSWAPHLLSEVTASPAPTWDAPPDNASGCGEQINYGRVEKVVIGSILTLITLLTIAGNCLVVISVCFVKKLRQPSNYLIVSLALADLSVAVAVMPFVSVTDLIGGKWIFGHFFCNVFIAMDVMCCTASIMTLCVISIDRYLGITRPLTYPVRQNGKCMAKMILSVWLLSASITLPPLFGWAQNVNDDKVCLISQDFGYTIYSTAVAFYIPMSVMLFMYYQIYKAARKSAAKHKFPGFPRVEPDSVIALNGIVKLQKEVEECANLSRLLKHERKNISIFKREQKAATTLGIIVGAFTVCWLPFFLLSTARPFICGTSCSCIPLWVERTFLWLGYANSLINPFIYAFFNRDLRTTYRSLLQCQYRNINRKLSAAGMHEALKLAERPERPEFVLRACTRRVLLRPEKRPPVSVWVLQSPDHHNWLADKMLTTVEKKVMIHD
Kind of assay: Serotonin 5-HT7 radioligand binding ([3H]LSD). The note with it: compound at 0.1 μM; read-out: Inhibition of ligand binding, Serotonin 5-HT7 (percent inhibition of specific binding). The procedure:
Lysergic acid diethylamide (LSD) for 120 min. at 25° C. […] Receptor proteins were filtered and washed, the filters were then counted to determine [^3H]LSD specifically bound.

In general, inhibition refers to the drop in the measured response relative to a control, in per cent.

T4 sequence (P14416 whole entry): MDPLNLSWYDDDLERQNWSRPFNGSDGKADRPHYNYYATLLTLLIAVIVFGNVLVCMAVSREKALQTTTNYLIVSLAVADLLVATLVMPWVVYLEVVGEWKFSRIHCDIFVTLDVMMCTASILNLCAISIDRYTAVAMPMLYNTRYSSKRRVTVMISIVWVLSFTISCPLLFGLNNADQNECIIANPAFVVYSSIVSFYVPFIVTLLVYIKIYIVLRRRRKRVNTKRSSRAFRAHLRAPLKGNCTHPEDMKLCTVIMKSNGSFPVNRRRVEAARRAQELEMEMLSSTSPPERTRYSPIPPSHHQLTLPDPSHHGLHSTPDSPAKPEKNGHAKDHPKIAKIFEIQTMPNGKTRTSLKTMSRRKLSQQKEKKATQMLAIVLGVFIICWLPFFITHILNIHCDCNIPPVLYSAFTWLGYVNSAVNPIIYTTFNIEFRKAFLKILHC
T5 sequence (P28223 whole entry): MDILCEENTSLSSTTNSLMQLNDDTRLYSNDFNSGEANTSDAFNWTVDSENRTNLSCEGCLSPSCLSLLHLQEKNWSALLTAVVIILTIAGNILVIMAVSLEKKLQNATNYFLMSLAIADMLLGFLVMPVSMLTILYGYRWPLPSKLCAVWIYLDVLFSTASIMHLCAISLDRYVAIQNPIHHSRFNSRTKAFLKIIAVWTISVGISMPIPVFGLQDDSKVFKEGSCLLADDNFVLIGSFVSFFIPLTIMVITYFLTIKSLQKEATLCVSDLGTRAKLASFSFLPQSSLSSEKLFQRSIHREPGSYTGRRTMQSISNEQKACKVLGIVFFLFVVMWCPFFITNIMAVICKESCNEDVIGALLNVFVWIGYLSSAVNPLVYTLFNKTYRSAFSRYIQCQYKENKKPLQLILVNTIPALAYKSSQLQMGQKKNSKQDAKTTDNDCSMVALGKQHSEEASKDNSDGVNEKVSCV
T1 sequence (P35367 whole entry): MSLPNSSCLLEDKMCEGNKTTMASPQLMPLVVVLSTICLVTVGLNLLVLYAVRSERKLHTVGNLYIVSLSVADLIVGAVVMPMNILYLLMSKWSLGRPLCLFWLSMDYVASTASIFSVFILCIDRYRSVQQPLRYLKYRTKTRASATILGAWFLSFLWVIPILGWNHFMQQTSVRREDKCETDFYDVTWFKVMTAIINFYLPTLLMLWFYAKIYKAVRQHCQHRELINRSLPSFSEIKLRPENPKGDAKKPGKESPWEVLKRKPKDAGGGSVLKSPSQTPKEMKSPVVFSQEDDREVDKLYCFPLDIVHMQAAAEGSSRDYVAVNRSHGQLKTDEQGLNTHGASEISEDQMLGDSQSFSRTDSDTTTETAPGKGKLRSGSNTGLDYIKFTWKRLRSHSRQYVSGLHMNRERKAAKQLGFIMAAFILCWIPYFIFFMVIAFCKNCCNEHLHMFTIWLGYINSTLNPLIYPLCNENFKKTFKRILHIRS

As to `Cc1ccc2c(c1)c1c(n2-c2ccccc2-c2ccncc2)CCN(C)C1` [Compound 5, 2,8-dimethyl-5-(2-pyridin-4-yl-phenyl)-2,3,4,5-tetrahydro-1H-pyrido[4,3-b]indole], the inhibition at 1 µM was determined as 38% in assay [1] and 2% in assay [4]. The inhibition at 0.1 µM in assay [2] was determined as 24%; in assay [3], 11%; in assay [5] it was 83%; in assay [6] it was 81%; in assay [7] it was 26%; in assay [8], 64%.

For the compound `Cc1ccc2c(c1)c1c(n2-c2ccccc2-c2ccc(F)cc2)CCN(C)C1` [Compound 10, 5-(4′-fluorobiphenyl-2-yl)-2,8-dimethyl-2,3,4,5-tetrahydro-1H-pyrido[4,3-b]indole], the inhibition at 1 µM in assay [1] was 82%; in assay [4], 26%. Further, the inhibition at 0.1 µM in assay [2] was 59%; in assay [3], 67%; in assay [5] it was 93%; in assay [6], 94%; in assay [7], 57%; in assay [8], 73%.

With `Cc1ccc2c(c1)c1c(n2-c2ccccc2N(C)C)CCN(C)C1` [Compound 6, [2-(2,8-dimethyl-1,2,3,4-tetrahydro-pyrido[4,3-b]indol-5-yl)-phenyl]-dimethyl-amine], the figures for the inhibition at 1 µM in assay [1] and in assay [4] were 99% and 58%, respectively. The inhibition at 0.1 µM in assay [5] was 91%; in assay [6], 90%; in assay [7], 28%; in assay [8], 49%.

For the compound `CN1CCc2c(c3cc(Cl)ccc3n2-c2cscc2-c2ccc(F)cc2)C1` [Compound 25], the results for the inhibition at 1 µM in assay [1] and in assay [4] were 80% and 39%, respectively. Also, the inhibition at 0.1 µM amounted to 81% in assay [5], 91% in assay [6], 56% in assay [7] and 94% in assay [8].

With `Cc1ccc2c(c1)c1c(n2-c2ccc(C(F)(F)F)nc2)CCN(C)C1` [Compound 4, 2,8-dimethyl-5-(6-trifluoromethyl-pyridin-3-yl)-2,3,4,5-tetrahydro-1H-pyrido[4,3-b]indole], the inhibition at 1 µM is -1% in assay [1] and 0% in assay [4]. In addition, the inhibition at 0.1 µM in assay [5] was found to be 67%; in assay [6], 73%; in assay [7] it was 14%; in assay [8], 1%.

In the case of `Cc1ccc2c(c1)c1c(n2-c2ccccc2)CCN(C)C1` [Compound 1, 2,8-dimethyl-5-phenyl-2,3,4,5-tetrahydro-1H-pyrido[4,3-b]indole], the inhibition at 1 µM in assay [1] came to 70%; in assay [4], 67%. Besides, the inhibition at 0.1 µM in assay [5] was 100%; in assay [6], 88%; in assay [7], 63%; in assay [8] it was 21%.

Consider `CN1CCc2c(c3cc(Cl)ccc3n2-c2cscc2-c2cccnc2)C1` [Compound 27], for which the inhibition at 1 µM in assay [1] stood at 76%; in assay [4], 26%. For the same compound, the inhibition at 0.1 µM was found to be 67% in assay [5], 72% in assay [6], 30% in assay [7] and 94% in assay [8].

On to `Cc1ccc2c(c1)c1c(n2-c2cncn2C)CCN(C)C1` [Compound 18, 2,8-dimethyl-5-(3-methyl-3H-imidazol-4-yl)-2,3,4,5-tetrahydro-1H-pyrido[4,3-b]indole], for which the values for the inhibition at 1 µM in assay [1] and in assay [4] were 79% and 13%, respectively. Besides, the inhibition at 0.1 µM in assay [5] stood at 14%; in assay [6] it was 8%; in assay [7] it was 2%; in assay [8], 22%.

Turning to `Cc1ccc2c(c1)c1c(n2-c2cscc2-c2cccnc2)CCN(C)C1` [Compound 22, 2,8-dimethyl-5-(4-pyridin-3-yl-thiophen-3-yl)-2,3,4,5-tetrahydro-1H-pyrido[4,3-b]indole], the inhibition at 1 µM in assay [1] worked out at 85%; in assay [4], 39%. Further, the inhibition at 0.1 µM in assay [5] was 75%; in assay [6], 80%; in assay [7], 14%; in assay [8], 91%.
